# From patent EP1272183B1, “METHODS AND COMPOSITIONS USEFUL IN ENHANCING OXYGEN DELIVERY TO CELLS” (Niadyne Corporation, priority 2000, dated 2001)
# How the values were obtained:
# skin of human volunteers = assay: Visual observation of vasodilation (blushing) after topical application of niacin ester lotions to the forearm; format: in vivo; settings: for Vasodilation at 0.1% / Vasodilation Effect at 0.1% Duration / Vasodilation Effect at 0.1% Onset: 0.1% in skin lotion; for Vasodilation at 0.1% / Vasodilation at 1.0%: anterior surface of forearm, visual observation of blushing; for Vasodilation at 1.0%: 1.0% in skin lotion; for Vasodilation Effect at 0.1% Duration / Vasodilation Effect at 0.1% Onset: visual determination
# Protocol: This example details the first of two sets of experiments designed to determine the vasodilation effect of alkyl niacin esters. Formulations were prepared by combining the alkyl esters referred to supra in a skin lotion, at 0.1% and 1.0% concentrations. The lotions were applied topically to the skin of human volunteers on the anterior surface of a forearm. Vasodilation was observed visually, i.e., by observing blushing at the site of application, or lack thereof. Both onset and duration of vasodilation were measured.
# Table 1: Properties of Niacin Esters
# [1] = Determination of log P (Poct/w) values in accordance with Harnisch, et al.; format: physicochemical; settings: experimentally determined, following Harnisch
# Protocol: The Poct/w values for these compounds were determined in accordance with Harnisch, et al., J. Chromatog.
# skin = assay: Skin oxygen and CO2 content measured with a transcutaneous monitor after topical application; format: in vivo, human
# Protocol: To examine this issue, the oxygen content of skin to which the octyl ester discussed supra was determined directly, using a transcutaneous oxygen monitor. The 1% formulation of the octyl ester was applied to skin for 30 minutes. After this thirty minute period, the skin was cleaned with soap and water, wiped with an alcohol swab, and a drop of deionized water was placed on the sensor surface before its attachment to the anterior surface of the volunteers' forearms. The transcutaneous values were recorded constantly, and stored by the instrument. The monitor measures relative oxygen content, because the temperature at which the monitor operates does impact the oxygen permeability of the stratum corneum. See, e.g., Martin, Resp. […] The sensor was calibrated at 4 hour intervals, or whenever the sensor temperature was changed.
# The monitor was operated at a temperature of 40°C. Values are given for both a control, and the formulation described herein.
# In a follow-up experiment, the monitor was op erated at 38°C, and both O2 and CO2 were measured, with a combined transcutaneous oxygen and CO2 monitor. […] The control is represented by the dotted line.
# Parallel experiments were carried out using 0.1% octyl niacin ester lotion, and a lotion containing octyl niacin ester (0.1 %), and 0.1 % butyl benzoate.
# Oxygen content was measured in the same way as is described, supra, or using other techniques known to the art.
# [2] = monitor at 38°C, versus control, Figure 3
SMILES,logP [1],Vasodilation at 0.1% (skin of human volunteers),Vasodilation at 1.0% (skin of human volunteers),further results
COC(=O)c1cccnc1 [1 carbon],–,Yes,Yes,–
CCCCCCCCCOC(=O)c1cccnc1 [9 carbons],–,No,Yes,Vasodilation at 1.0% (skin of human volunteers; listed as C9): caused vasodilation
"CCCCOC(=O)c1ccccc1 [Butyl benzoate, reference compound]",–,–,–,"effect on the increase in oxygen content caused by octyl niacin ester (skin; lotion containing octyl niacin ester (0.1 %) and 0.1 % butyl benzoate versus 0.1% octyl niacin ester lotion, Figure 4): blocked the increase in oxygen content; chromatographic logP ([1]; octanol/water): 3.5"
CCCCOC(=O)c1cccnc1 [4 carbons],2.4,Yes,Yes,–
CCCCCCCCCCCCCCOC(=O)c1cccnc1 [14 carbons],–,No,No,logP ([1]; octanol/water): 7.6
"CCCCCCCCOC(=O)c1cccnc1 [8 carbons, Octyl niacin]",–,Yes,Yes,"Vasodilation Effect at 0.1% Duration (skin of human volunteers): 240 to 360 min; Vasodilation Effect at 0.1% Onset (skin of human volunteers): 10 to 20 min; Vasodilation Effect at 0.1% Duration (skin of human volunteers; listed as C8): longest effect; skin oxygen (transcutaneous oxygen monitor) (skin; 1% formulation applied to skin for 30 minutes, monitor at 40°C, versus control, Figure 2): sustained increase in skin oxygen; CO2 content (combined transcutaneous oxygen and CO2 monitor) (skin; [2]): decrease in CO2 content; skin oxygen content (combined transcutaneous oxygen and CO2 monitor) (skin; [2]): sustained increase in skin oxygen content"
"CCOC(=O)c1cccnc1 [2 carbons, Ethyl niacin]",–,Yes,Yes,Vasodilation Effect at 0.1% Duration (skin of human volunteers): 30 to 45 min; Vasodilation Effect at 0.1% Onset (skin of human volunteers): 5 to 10 min
CCCCCCCCCCCOC(=O)c1cccnc1 [11 carbons],–,No,Slight,–
CCCCCCCCCCCCOC(=O)c1cccnc1 [12 carbons],–,No,No,logP ([1]; octanol/water): 6.6
"CCCCCCOC(=O)c1cccnc1 [6 carbons, Hexyl niacin]",3.5,Yes,Yes,Vasodilation Effect at 0.1% Duration (skin of human volunteers): 60 to 90 min; Vasodilation Effect at 0.1% Onset (skin of human volunteers): 10 to 15 min

# Further lines, with some results ahead:
logP [1],SMILES,Vasodilation at 0.1% (skin of human volunteers),Vasodilation at 1.0% (skin of human volunteers),further results
5.8,CCCCCCCCCCOC(=O)c1cccnc1 [10 carbons],No,Yes,Vasodilation at 1.0% (skin of human volunteers; listed as C10): caused vasodilation
8.3,CCCCCCCCCCCCCCCOC(=O)c1cccnc1 [15 carbons],No,No,–
9.7,CCCCCCCCCCCCCCCCCCOC(=O)c1cccnc1 [18 carbons],No,No,–
7.5,CCCCCCCCCCCCCOC(=O)c1cccnc1 [13 carbons],No,No,–
9.2,CCCCCCCCCCCCCCCCOC(=O)c1cccnc1 [16 carbons],No,No,–
